Legend:
HSV = assay: Murine HSV skin infection model; format: in vivo; conditions: oral doses of 5 mg/kg or higher once daily for four days; data not shown
Procedure: To assess the pharmacokinetic/pharmacodynamic profile the effective dose of the free base of N-[5-(aminosulfonyl)-4-methyl-1,3-thiazol-2-yl]-N-methyl-2-[4-(2-pyridinyl)phenyl]-acetamide was validated in a murine HSV skin infection model and associated plasma concentrations were determined (data not shown).
(§1) In healthy male volunteers these plasma concentrations were covered by a single dose of 40 mg as free base equivalent to the crystalline mono mesylate monohydrate salt of N-[5-(aminosulfonyl)-4-methyl-1,3-thiazol-2-yl]-N-methyl-2-[4-(2-pyridinyl)phenyl]acetamide (see FIG. 10) and at steady state by daily doses of 25 mg as free base equivalent (see FIG. 11) for 21 days.

[1] = Safety and tolerability in phase I trials; format: in vivo, human; conditions: healthy male volunteers, single and multiple dose, up to the highest dose tested
Procedure: The results were compared with the effective concentration of the free base of N-[5-(aminosulfonyl)-4-methyl-1,3-thiazol-2-yl]-N-methyl-2-[4-(2-pyridinyl)phenyl]acetamide in cell culture and correlated to exposures reached in healthy male volunteers in single and multiple dose phase I trials (see FIGS. 9-13).
as §1

[2] = Single-dose escalation and pharmacokinetics in human volunteers; format: in vivo
Text: Exposure of the free base form of N-[5-(aminosulfonyl)-4-methyl-1,3-thiazol-2-yl]-N-methyl-2-[4-(2-pyridinyl)-phenyl]acetamide to the human body may be measured by high pressure liquid chromatography (HPLC) by looking at different pharmacokinetic parameters in suitable bodily fluids such as for instance blood plasma and urine, the most common parameters being the Cmax, the so-called area under the curve (AUC), and the terminal half-life (t1/2Z). Hereto, the person skilled in the art understands that said parameters are determined by using adequate bioanalytical methods with adequate sensitivity, specificity, ruggedness, stability and repeatability, as for instance a qualified liquid chromatography triple quad mass spectrometry based method coupled with a suitable extraction method for the separation of the analyte from, e.g. the blood plasma.
Therefore, pharmacokinetic studies in human subjects were undertaken following both single and multiple dose administrations of the crystalline mono mesylate monohydrate salt of N-[5-(aminosulfonyl)-4-methyl-1,3-thiazol-2-yl]-N-methyl-2-[4-(2-pyridinyl)phenyl]-acetamide, wherein the particle size distribution is preferably defined by d(0.1) from 2 to 100 μm, d(0.5) from 30 to 210 μm and d(0.9) from 70 to 400 μm with a specific surface area of the particles less than 1.0 m^2/g, and more preferably defined by d(0.1) from 10 to 75 μm, d(0.5) from 100 to 175 μm, d(0.9) from 200 to 350 μm with a specific surface area of the particles less than 0.3 m^2/g.
Single oral doses of the crystalline mono mesylate monohydrate salt of N-[5-(aminosulfonyl)4methyl1,3thiazol-2-yl]-N-methyl-2-[4-(2-pyridinyl)phenyl]acetamide using the formulations according to example 2, Table 2, were administered to six volunteers per dose step. The overall shape of the plasma concentrations vs. time profiles were similar across all doses (see FIG. 9 and FIG. 12). […]
AUC0-∞: Area under the analyte vs. time concentration from time of administration up to infinity, calculated as
[formula] wherein A0-last is defined as the area under the analyte vs. time concentration up to time of the last qualifiable concentration, calculated by linear up/log down summation and Clast is defined as last quantifiable observed analyte concentration. λz is the apparent terminal elimination rate constant, determined by linear regression of terminal points of In-linear analyte concentration-time curve.
Cmax is the maximal observed analyte concentration and tmax is the time to reach Cmax; t1/2z is defined as the apparent terminal elimination half-life, calculated as
MRT: Mean Residence Time; calculated AUMC divided by AUC, wherein AUMC is the area under the first moment of the concentration-time curve from zero up to ∞ with extrapolation of the terminal phase and AUC is the area under the concentration-time curve from zero up to ∞ with extrapolation of the terminal phase. […]

[3] = Multiple-dose escalation and steady-state pharmacokinetics in healthy volunteers; format: in vivo, human; conditions: for AUGτ: day 21 steady state, n=12
Text: For the three doses of the mono mesylate monohydrate salt of N-[5-(aminosulfonyl)-4-methyl-1,3-thiazol-2-yl]-N-methyl-2-[4-(2-pyridinyl)phenyl]acetamide in formulation according to example 1, Table 2, wherein the particle size distribution is preferably defined by d(0.1) from 2 to 100 μm, d(0.5) from 30 to 210 μm and d(0.9) from 70 to 400 μm with a specific surface area of the particles less than 1.0 m^2/g, and more preferably defined by d(0.1) from 10 to 75 μm, d(0.5) from 100 to 175 μm, d(0.9) from 200 to 350 μm with a specific surface area of the particles less than 0.3 m^2/g, investigated (5, 25, and 100 mg as free base equivalent; once per day oral administration, […]), the individual concentration-time curves of the free base N-[5-(aminosulfonyl)-4-methyl-1,3-thiazol-2-yl]Nmethyl-2-[4-(2-pyridinyl)phenyl]acetamide at day 1 (after the first administration) were very similar in their general shape and slope to those profiles obtained in the single dose escalation trial (see Example 6).
At steady state, there was a low inter-individual variability of minimal or “trough” concentrations with CVs (coefficient of variations) between 16.7 and 21.7% (day 21). For all doses, the individual and mean concentration-time curves of the free base of N-[5-(aminosulfonyl)-4-methyl-1,3-thiazol-2-yl]-N-methyl-2-[4-(2-pyridinyl)phenyl]acet-amide at day 21 were very similar in their shape and slope to those profiles obtained at day 1.
Table 10: Steady state pharmacokinetic parameters of the free base N-[5-(aminosulfonyl)-4-methyl-1,3-thiazol-2-yl]-N-methyl-2-[4-(2-pyridinyl)phenyl]acetamide at day 21 after daily administrations of 5, 25, or 100 mg as free base equivalent of the mono mesylate monohydrate salt of N-[5-(aminosulfonyl)-4-methyl-1,3-thiazol-2-yl]-N-methyl-2-[4-(2-pyridinyl)phenyl]acetamide in formulation according to example 2, Table 2, wherein the particle size distribution is preferably defined by d(0.1) from 2 to 100 μm, d(0.5) from 30 to 210 μm and d(0.9) from 70 to 400 μm with a specific surface area of the particles less than 1.0 m^2/g, and more preferably defined by d(0.1) from 10 to 75 μm, d(0.5) from 100 to 175 μm, d(0.9) from 200 to 350 μm with a specific surface area of the particles less than 0.3 m^2/g, to healthy volunteers (n=12 per dose).

Thermostability = format: physicochemical; conditions: compared to the mesylate salt
Text: A clear advantage of the N-[5-(aminosulfonyl)-4-methyl-1,3-thiazol-2-yl]-N-methyl-2-[4-(2-pyridinyl)phenyl]acetamide mono mesylate monohydrate, wherein the PSD, PSR and SSA are as defined herein, is its proven long-term stability. Therefore, the inventive N-[5-(aminosulfonyl)-4-methyl-1,3-thiazol-2-yl]-N-methyl-2-[4-(2-pyridinyl)-phenyl]acetamide mono mesylate monohydrate, which is characterized by the PSD, PSR and SSA as disclosed herein, is better suited for the preparation of long-term stable tablets compared to the free base form of N-[5-(aminosulfonyl)-4-methyl-1,3-thiazol-2-yl]-N-methyl-2-[4-(2-pyridinyl)phenyl]acetamide.

| SMILES | suppression of murine HSV skin infection (HSV) | safety and tolerability [1] | gender-related difference in exposure ([2]; single dose of 80 mg as free base equivalent, after normalization to body weight) | relation of maximum plasma concentrations to dose ([2]; single doses from 5 mg to 400 mg as free base equivalent) | relation of AUC0-∞ to dose ([2]; single doses from 5 mg to 480 mg as free base equivalent) | mean maximum blood plasma concentration (mean Cmax) of the free base ([2]; single oral dose 480 mg as free base equivalent) [ng/mL] | AUC0-∞ ([2]; single oral dose 600 mg free base equivalent, mean, n=6) [ng·h/mL] | AUGτ ([3]; human, 5 mg free base equivalent once daily oral) [ng·h/mL] | AUGτ ([3]; human, 25 mg free base equivalent once daily oral) [ng·h/mL] | AUGτ ([3]; human, 100 mg free base equivalent once daily oral) [ng·h/mL] | relation of steady-state exposure (Ctrough, AUCτ, Cmax,ss, Cav) to dose ([3]; human, 5, 25, 100 mg once daily) | relation of AUC0-24 h and Cmax at day 1 to dose ([3]; human, 5, 25, 100 mg, after the first administration) | accumulation ratio R for both AUC and Cmax ([3]; human, all doses applied (5, 25, 100 mg once daily)) | thermostability (Thermostability) |
| --- | --- | --- | --- | --- | --- | --- | --- | --- | --- | --- | --- | --- | --- | --- |
| Cc1nc(N(C)C(=O)Cc2ccc(-c3ccccn3)cc2)sc1S(N)(=O)=O [free base, N-[5-(aminosulfonyl)-4-methyl-1,3-thiazol-2-yl]-N-methyl-2-[4-(2-pyridinyl)phenyl]acetamide] | completely suppressed the murine infection | safe and well tolerated | – | – | – | – | – | – | – | – | – | – | – | – |
| CS(=O)(=O)O.Cc1nc(N(C)C(=O)Cc2ccc(-c3ccccn3)cc2)sc1S(N)(=O)=O [mono mesylate monohydrate, N-[5-(aminosulfonyl)-4-methyl-1,3-thiazol-2-yl]-N-methyl-2-[4-(2-pyridinyl)-phenyl]acetamide mono methanesulfonic acid monohydrate] | – | – | No clinical relevant gender-related difference | linearly related to doses | dose-proportional increase | 6921 ± 2190 | 320800 | 5094 | 23430 | 108800 | dose-proportional increase | dose-proportional increases | ~5 | up to 170 °C |

Reference: US9592225B2, “Crystalline N-[5-(aminosulfonyl)-4-methyl-1,3-thiazol-2-yl]-N-methyl-2-[4-(2-pyridinyl)phenyl]acetamide mono mesylate monohydrate having a specific particle size distribution range and a specific surface area range for use in pharmaceutical formulations” (AICURIS ANTI-INFECTIVE CURES GMBH, priority 2011, dated 2017)
